One molecule from US20090263324A1, “Animal Model With Induced Arrhythmia” (priority 2005, published 2009) can be followed below.

SMILES strings stand for the structures.

In data set [1] the test system is chronic atrioventricular block monkey model. Put plainly: Examination for onset of Torsades de pointes (TdP) with dl-sotalol administration. The data set is classed as in vivo, cynomolgus monkey. The conditions noted are these: five animals. The procedure: A Holter electrocardiograph was attached to each of five animals of the chronic atrioventricular block monkey model obtained in Example 1; 1, 3, 5 or 10 mg/kg dl-sotalol was orally administered to each animal, and electrocardiogram after administration was monitored.

The subject of data set [2] is chronic atrioventricular block monkeys. Put plainly: Evaluation of QT interval prolongation by dl-sotalol (Holter electrocardiogram). The data set is classed as in vivo, cynomolgus monkey. The conditions noted are these: oral administration of 5 mg/kg.
Description: QTc interval (ms) is a value obtained by correcting the fluctuation of QT interval due to heart rate by a numerical formula, and can be obtained by the following equation.
QTc=QT÷^3√{square root over ( )} (60÷ventricular rhythm)
Here, ventricular rhythm refers to the frequency of excitation of the ventricle in a complete atrioventricular block, and the unit of measurement is beat/minute.
Next, a comparison is made between the QT interval or QTc interval in the recipient animal and the QT interval or QTc interval in the same animal but before administration. QT interval or QTc interval prolongation can be determined by (value after administration)−(value before administration).
As the control solution, 0.5% methylcellulose solution was orally administered, and changes of electrocardiogram were examined; on a later day, 5 mg/kg dl-sotalol (group-3 antiarrhythmic agent) was orally administered to the same animals, and electrocardiogram was measured.

For `CC(C)NCC(O)c1ccc(NS(C)(=O)=O)cc1` (racemic) [dl-sotalol], the “animals in which TdP occurred” value in data set [1] (5 mg/kg orally) was 4 of the 5 animals; in data set [1] (10 mg/kg orally), “all animals”. Besides, the “time after administration with statistically significant QTc action compared to the solvent group” value in data set [2] is 1 to 4 h. Moreover, the QTc interval prolongation result in data set [2] (Holter electrocardiograph for 24 hours, compared to the solvent group) was “QTc interval prolongation was observed”.
